Measurements reported in patent US5112841A, “Imidazole derivatives and antiepileptics comprising said imidazole derivatives as effective ingredients” (Mitsui Toatsu Chemicals, Incorporated, priority 1990, dated 1992).
Counter-ions that a name gives are not always drawn.

What was measured:
in vivo [1] = assay: in vivo; design: species or system ddy Male mice; conditions: mouse, po
Experimental: ddy Male mice (body weight: 25-30 g) were used in groups each of which consisted of 5-10 mice. A test compound was orally administered One hour later, each mouse was placed on a rod which rotated a full turn per second. Mice which fell down within 120 seconds were counted. Rotorod action (%) was calculated in accordance with the following calculation formula, and ED50 (mg/Kg) was determined therefrom. [formula]

[2] = Acute Toxicity (death within 5 days); conditions: mouse, in vivo, oral, death in 5 days (LD50 in the method text), read-out: ED50
Experimental: ddy Male mice (body weight: 25-30 g) were used in groups each of which consisted of 5-6 mice. A test compound was orally administered. Mice which died in 5 days were counted. Death rate (%) wa calculated in accordance with the following calculation formula, and LD50 (mg/Kg) was determined therefrom. [formula]

in vivo [3] = assay: in vivo; design: species or system ddy Male mice; conditions: mouse, po; remark: listed apart in the source
Experimental: ddy Male mice (body weight: 25-30 g) were used in groups each of which consisted of 5-10 mice. A test compound was orally administered. One hour later, each mouse was caused to hold with the fore paws thereof a stainless steel wire whose diameter was 1.5 mm. […] Traction activity (%) was calculated in accordance with the following calculation formula, and ED50 (mg/Kg) was determined therefrom. [formula]

mice = assay: Maximal Electroshock Seizure Test (tonic-extensor convulsions of hind legs); format: in vivo, ddy Male mice; conditions: Mus musculus; antiepileptic action; oral, electric shock 1 hour after dosing (200 Hz, 50 mA, 0.2 second)
Experimental: ddy Male mice (body weight: 25-30 g) were used in groups each of which consisted of 5-10 mice. A test compound was orally administered. One hour later, an electric shock (200 Hz, 50 mA, 0.2 second) was applied through corneal electrodes. […] Antiepileptic action (%) was calculated in accordance with the following calculation formula, and ED50 (mg/Kg) was determined therefrom. [formula]

Structure (SMILES)	TD50 at 1 h (in vivo [1]) [mg/kg]	LD50 at 120 h [2] [mg/kg]	TD50 at 1 h (in vivo [3]) [mg/kg]	ED50 (mice) [mg/kg]
Cl.c1ccc(-c2cc(-n3cc(Cn4ccnc4)c4ccccc43)on2)cc1 [Example 1, 1-(3-phenyl-5-isoxazolyl)-3-(1-imidazolyl)methylindole hydrochloride]	500	> 1000	> 750	9
Cl.Fc1ccc(-c2cc(-n3cc(Cn4ccnc4)c4ccccc43)on2)cc1 [Example 3, 1-{3-(4-Fluorophenyl)-5-isoxazolyl)-3-(1-imidazolyl)methylindole hydrochloride]				20 to 40
Cl.Clc1ccc(-c2cc(-n3cc(Cn4ccnc4)c4ccccc43)on2)cc1 [Example 4, 1-{3-(4-Chlorophenyl)-5-isoxazolyl}-3-(1-imidazolyl)methylindole hydrochloride]				20 to 40
Cc1ccc(-c2cc(-n3cc(Cn4ccnc4)c4ccccc43)on2)cc1 [Example 5, 1-(3-(p-Toluyl)-5-isoxazolyl}-3-(l-imidazolyl)-methylindole hydrochloride]				16
COc1ccc(-c2cc(-n3cc(Cn4ccnc4)c4ccccc43)on2)cc1.Cl [Example 6, 1-{3-(4-Methoxyphenyl)-5-isoxazolyl}-3-(1-imidazolyl)methylindol hydrochloride]	> 750	> 1000	> 750	7
Cl.N#Cc1ccc(-c2cc(-n3cc(Cn4ccnc4)c4ccccc43)on2)cc1 [Example 7, 1-(3-(4-Cyanophenyl)-5-isoxazolyl)-3-(1-imidazolyl)methylindole hydrochloride]				20 to 40
Cl.FC(F)(F)c1ccc(-c2cc(-n3cc(Cn4ccnc4)c4ccccc43)on2)cc1 [Example 8, 1-{3-(4-Trifluoromethylphenyl)-5-isoxazolyl}-3-(1-imidazolyl)methylindole hydrochloride]				20 to 40
Cl.Clc1ccccc1-c1cc(-n2cc(Cn3ccnc3)c3ccccc32)on1 [Example 9, 1-{3-(2-Chlorophenyl)-5-isoxazolyl}-3-(1-imidazolyl)methylindole hydrochloride]				20 to 40
Cl.Clc1cccc(-c2cc(-n3cc(Cn4ccnc4)c4ccccc43)on2)c1 [Example 10, 1-{3-(3-Chlorophenyl)-5-isoxazolyl)-3-(1-imidazolyl)methylindole hydrochloride]				20 to 40
COc1cccc(-c2cc(-n3cc(Cn4ccnc4)c4ccccc43)on2)c1.Cl [Example 11, 1-(3-(3-Methoxyphenyl)-5-isoxazolyl}-3-(1-imidazolyl)methylindole hydrochloride]	> 750	> 1000	> 750	14
O=C1NC(=O)C(c2ccccc2)(c2ccccc2)N1 [Phenytoin.Na, reference compound]	186	300 to 500	350	7
